Peptide text beside a SMILES is read from it.

For experiment [1], the target named is T1, Estrogen receptor (Homo sapiens, UniProt P03372).
T1 sequence (P03372 whole entry): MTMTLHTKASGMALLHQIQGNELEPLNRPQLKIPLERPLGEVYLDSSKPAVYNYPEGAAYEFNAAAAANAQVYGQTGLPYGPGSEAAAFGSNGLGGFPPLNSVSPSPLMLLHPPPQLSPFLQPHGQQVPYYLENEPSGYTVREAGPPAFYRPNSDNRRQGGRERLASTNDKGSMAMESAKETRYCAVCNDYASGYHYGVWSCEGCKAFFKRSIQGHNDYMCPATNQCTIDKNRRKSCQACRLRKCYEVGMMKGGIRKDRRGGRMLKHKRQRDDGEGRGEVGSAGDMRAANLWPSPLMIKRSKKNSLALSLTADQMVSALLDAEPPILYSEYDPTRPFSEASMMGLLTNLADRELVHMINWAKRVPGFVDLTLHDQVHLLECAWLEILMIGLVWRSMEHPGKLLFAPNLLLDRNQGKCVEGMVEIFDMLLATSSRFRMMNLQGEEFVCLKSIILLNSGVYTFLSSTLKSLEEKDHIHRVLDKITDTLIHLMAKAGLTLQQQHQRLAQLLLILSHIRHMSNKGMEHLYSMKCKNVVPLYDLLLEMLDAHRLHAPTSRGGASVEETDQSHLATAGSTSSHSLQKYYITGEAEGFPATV
The experiment in a line: Inhibition of full length human ERalpha expressed in human HEC1 cells in presence of estradiol by luciferase reporter gene assay. Type of experiment: cell-based. In general terms: Reporter assays use an easily measured gene product as a stand-in for the process of interest.

Experiment [2] addresses T1, Estrogen receptor. The experiment in a line: Displacement of fluorescein-labeled PGC1alpha peptide from human GST-tagged ERalpha LBD after 2 hrs in presence of estradiol-beta by TR-FRET assay. (In general: Time-resolved FRET reads energy transfer from a long-lived donor to a nearby acceptor.)
Experiment [3] deals with T2, Retinoic acid receptor RXR-alpha (Homo sapiens, UniProt P19793).
T2 sequence (P19793 whole entry): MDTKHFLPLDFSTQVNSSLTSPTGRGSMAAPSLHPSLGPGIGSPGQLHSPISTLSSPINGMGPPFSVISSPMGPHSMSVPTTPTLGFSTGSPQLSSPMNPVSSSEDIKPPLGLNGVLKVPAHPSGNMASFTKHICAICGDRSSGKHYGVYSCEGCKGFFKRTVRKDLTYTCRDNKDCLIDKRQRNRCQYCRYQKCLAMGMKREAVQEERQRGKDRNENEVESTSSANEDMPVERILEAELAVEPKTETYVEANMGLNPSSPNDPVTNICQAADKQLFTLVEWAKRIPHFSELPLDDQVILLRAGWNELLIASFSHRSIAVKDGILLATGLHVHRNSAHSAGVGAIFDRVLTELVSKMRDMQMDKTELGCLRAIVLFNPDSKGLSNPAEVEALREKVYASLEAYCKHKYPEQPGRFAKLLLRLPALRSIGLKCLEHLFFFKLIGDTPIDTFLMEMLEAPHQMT
Description: Binding affinity to human GST-tagged RXRalpha ligand binding domain (223 to 462 residues) expressed in Escherichia coli BL21 assessed as inhibition of 9-cis-RA-induced coactivator recruitment by TR-FRET assay

The target in experiment [4] is Androgen receptor/PELP1 (Homo sapiens, UniProt P10275+Q8IZL8). The experiment in a line: Inhibition of full length AR/PELP1 (unknown origin) interaction expressed in human LNCaP cells preincubated for 2 hrs followed by DHT addition measured after 24 hrs by Western blot analysis. Format: cell-based. On the technique in general: Immunoblotting shows a protein as a band on a membrane.

The target of experiment [5] is T1, Estrogen receptor. As to the kind of experiment: Displacement of europium-labeled SRC1 peptide from full length human recombinant ERalpha expressed in baculovirus expression system after 1.5 hrs in presence of estradiol-beta by TR-FRET assay.
Experiment [6] concerns the target T3, Androgen receptor (Homo sapiens, UniProt P10275).
T3 sequence (P10275 whole entry): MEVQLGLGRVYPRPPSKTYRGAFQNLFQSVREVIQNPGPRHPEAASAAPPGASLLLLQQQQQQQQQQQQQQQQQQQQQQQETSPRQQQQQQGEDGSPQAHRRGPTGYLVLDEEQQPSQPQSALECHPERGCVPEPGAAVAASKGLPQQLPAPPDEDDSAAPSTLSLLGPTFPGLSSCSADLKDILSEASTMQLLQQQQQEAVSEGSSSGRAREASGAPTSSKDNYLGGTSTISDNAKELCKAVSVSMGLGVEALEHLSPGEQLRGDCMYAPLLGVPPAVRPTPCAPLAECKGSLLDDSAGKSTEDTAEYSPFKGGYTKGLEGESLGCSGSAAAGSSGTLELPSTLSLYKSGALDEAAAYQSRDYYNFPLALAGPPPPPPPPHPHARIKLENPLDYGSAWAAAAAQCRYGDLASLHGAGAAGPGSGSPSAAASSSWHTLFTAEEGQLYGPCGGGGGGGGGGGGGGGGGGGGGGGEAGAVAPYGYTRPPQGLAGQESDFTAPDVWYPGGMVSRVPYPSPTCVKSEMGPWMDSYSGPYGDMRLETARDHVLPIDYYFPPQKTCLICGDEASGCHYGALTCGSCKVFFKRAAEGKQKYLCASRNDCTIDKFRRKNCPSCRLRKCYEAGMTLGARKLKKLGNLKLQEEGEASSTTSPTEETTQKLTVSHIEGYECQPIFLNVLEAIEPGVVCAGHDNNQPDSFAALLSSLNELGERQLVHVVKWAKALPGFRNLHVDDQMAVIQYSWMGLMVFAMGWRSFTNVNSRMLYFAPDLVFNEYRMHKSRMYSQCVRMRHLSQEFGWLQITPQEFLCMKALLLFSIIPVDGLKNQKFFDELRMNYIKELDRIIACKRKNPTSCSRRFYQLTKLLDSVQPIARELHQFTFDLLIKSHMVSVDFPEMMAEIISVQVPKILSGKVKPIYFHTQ
The experiment in a line: Inhibition of AR transcriptional activity in human ARR2PB-eGFP expressing LNCaP cells after 3 days by fluorescence assay. Type of experiment: cell-based.

Experiment [7] addresses T4, Peroxisome proliferator-activated receptor alpha (Homo sapiens, UniProt Q07869).
T4 sequence (Q07869 whole entry): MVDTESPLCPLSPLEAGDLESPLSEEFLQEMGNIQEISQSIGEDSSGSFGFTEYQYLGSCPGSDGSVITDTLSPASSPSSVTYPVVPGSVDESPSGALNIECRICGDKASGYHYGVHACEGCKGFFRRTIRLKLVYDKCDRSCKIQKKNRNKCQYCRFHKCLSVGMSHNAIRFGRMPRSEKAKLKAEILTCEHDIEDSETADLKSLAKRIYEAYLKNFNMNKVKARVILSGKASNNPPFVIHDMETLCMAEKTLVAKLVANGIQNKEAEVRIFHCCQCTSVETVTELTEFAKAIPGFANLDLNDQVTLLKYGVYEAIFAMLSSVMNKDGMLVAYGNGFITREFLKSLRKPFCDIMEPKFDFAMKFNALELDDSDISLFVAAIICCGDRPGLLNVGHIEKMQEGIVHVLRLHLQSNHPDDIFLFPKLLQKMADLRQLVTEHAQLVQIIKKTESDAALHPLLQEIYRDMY
The experiment in a line: Displacement of 5-FAM-labeled NBM131 from human PPARalpha ligand binding domain expressed in human HepG2 cells by fluorescence polarization assay.

Experiment [8] concerns the target T5, Peroxisome proliferator-activated receptor gamma (Homo sapiens, UniProt P37231).
T5 sequence (P37231 whole entry): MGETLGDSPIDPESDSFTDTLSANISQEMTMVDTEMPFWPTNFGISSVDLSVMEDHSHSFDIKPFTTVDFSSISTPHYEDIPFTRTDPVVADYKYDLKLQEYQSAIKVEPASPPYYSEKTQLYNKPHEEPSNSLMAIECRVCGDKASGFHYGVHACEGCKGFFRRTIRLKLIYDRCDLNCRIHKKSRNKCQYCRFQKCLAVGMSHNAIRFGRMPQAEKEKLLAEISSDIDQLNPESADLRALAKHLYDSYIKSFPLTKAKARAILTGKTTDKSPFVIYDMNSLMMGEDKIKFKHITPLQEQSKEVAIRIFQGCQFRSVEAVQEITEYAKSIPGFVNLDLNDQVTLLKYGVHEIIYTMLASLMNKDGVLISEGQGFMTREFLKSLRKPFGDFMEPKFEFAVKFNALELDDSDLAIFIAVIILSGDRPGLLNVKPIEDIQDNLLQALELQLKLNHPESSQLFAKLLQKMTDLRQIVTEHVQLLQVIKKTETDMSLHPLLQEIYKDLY
As to the kind of experiment: Displacement of 5-FAM-labeled NBM131 from human PPARgamma ligand binding domain expressed in human HepG2 cells by fluorescence polarization assay.

Chain of Androgen receptor/PELP1 (Q8IZL8 whole entry, one chain of several): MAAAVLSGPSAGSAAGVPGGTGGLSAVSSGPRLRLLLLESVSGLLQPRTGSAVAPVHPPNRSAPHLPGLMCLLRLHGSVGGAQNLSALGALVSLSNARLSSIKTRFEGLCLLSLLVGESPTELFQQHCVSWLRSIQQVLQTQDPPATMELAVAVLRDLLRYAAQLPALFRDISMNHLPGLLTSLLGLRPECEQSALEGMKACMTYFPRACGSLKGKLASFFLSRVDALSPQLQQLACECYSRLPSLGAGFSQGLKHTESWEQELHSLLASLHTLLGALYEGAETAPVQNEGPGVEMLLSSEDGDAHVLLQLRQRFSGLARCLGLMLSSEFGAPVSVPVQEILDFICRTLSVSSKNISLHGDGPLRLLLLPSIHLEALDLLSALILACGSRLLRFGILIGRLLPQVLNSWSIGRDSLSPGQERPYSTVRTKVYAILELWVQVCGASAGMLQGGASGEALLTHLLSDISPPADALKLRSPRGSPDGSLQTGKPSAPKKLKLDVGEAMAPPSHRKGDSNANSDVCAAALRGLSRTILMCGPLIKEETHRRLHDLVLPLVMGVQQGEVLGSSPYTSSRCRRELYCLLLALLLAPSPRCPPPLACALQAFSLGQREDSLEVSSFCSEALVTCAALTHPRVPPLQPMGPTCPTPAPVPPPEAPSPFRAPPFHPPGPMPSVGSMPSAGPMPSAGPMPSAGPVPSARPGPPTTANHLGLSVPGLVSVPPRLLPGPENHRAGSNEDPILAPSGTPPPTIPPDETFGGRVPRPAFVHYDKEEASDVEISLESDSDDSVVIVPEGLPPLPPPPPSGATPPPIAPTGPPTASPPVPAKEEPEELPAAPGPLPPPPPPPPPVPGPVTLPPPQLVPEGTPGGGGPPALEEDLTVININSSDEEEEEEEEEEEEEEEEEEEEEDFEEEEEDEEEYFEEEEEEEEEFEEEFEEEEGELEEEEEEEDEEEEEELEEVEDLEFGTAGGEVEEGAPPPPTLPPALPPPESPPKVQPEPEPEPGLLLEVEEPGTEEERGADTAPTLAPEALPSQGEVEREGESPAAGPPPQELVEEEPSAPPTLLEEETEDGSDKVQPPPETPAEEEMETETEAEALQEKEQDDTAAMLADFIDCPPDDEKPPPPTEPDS

`O=C(CCCCn1c(=S)[nH]c2ccccc2c1=O)N1CCN(c2ccc(C(F)(F)F)cc2)CC1`: the IC50 (in general, the point on the concentration scale where inhibition reaches its midpoint) in experiment [1] is 2.3 µM.

`CC(C)NC(=O)CSc1nc2ccc(NC(=O)CSc3cccc(Cl)c3)cc2s1`: the IC50 in experiment [1] came out at 6.3 µM. Take `O=C1NN(c2ccc(Cl)c(Cl)c2)C(=O)C1Cc1c[nH]c2ccccc12` (stereo not given): the concentration for half-maximal inhibition (IC50) in experiment [2] worked out at 2.46 µM. Regarding `CCOc1cc(Br)cc(CNNC(=O)c2ccc3c(c2)OCCO3)c1O`, the half-maximal inhibitory concentration (IC50) in experiment [2] came out at 2.98 µM. For the compound `CC1=C(CCc2nnn[nH]2)c2cc(F)ccc2/C1=C\c1ccc(C(C)C)cc1`, half-maximal inhibition in experiment [3] (IC50) was put at 10 µM. Consider `COC(=O)c1ccc(NC(=O)c2ccc([N+](=O)[O-])c(OCC(C)C)c2)c(OCC(C)C)c1`, for which the midpoint of inhibition in experiment [4], the IC50, lay at 0.04 µM. On to `CC[C@H](C)[C@@H]1NC(=O)[C@H](NC(=O)[C@@H](N)CCCCN)CSSC[C@@H](C(=O)N[C@@H](CCCNC(=N)N)C(=O)N[C@@H](CC(C)C)C(=O)N[C@@H](CC(C)C)C(=O)N[C@@H](CCC(N)=O)C(=O)O)NC(=O)[C@H](CC(C)C)NC1=O`, for which the Ki – broadly, a measure of affinity in units of concentration, obtained from inhibition or displacement – in experiment [5] is 0.025 µM. Take `c1ccc2c(c1)CC(c1c[nH]c3ccccc13)N2` (stereo not given): in experiment [6], 0.31 µM corresponded to half-maximal inhibition (IC50). As for `CC(C)C[C@H](NC(=O)[C@H](Cc1ccccc1)NC(=O)[C@H](CCC(N)=O)NC(=O)[C@@H](NC(=O)[C@H](CC(C)C)NC(=O)[C@H](CC(C)C)NC(=O)[C@@H]1CCCN1C(=O)[C@H](Cc1cnc[nH]1)NC(=O)[C@H](CC(C)C)NC(=O)[C@H](CCC(N)=O)NC(=O)[C@@H](NC(=O)[C@@H]1CCCN1C(=O)[C@@H]1CCCN1C(=O)[C@@H](NC(=O)[C@@H](NC(=O)[C@H](C)N)[C@@H](C)O)[C@@H](C)O)[C@@H](C)O)[C@@H](C)O)C(=O)N[C@@H](CCCNC(=N)N)C(=O)N[C@H](C(=O)N[C@@H](CC(=O)O)C(=O)O)[C@@H](C)O` (H-ATTPPTQLHPLLTQFLRTD-OH), the dissociation constant Kd in experiment [7] and in experiment [8] was 0.08 µM in each case.

The record behind these values is ChEMBL document CHEMBL4477262, “Non-canonical modulators of nuclear receptors” (Bioorg Med Chem Lett, 2016).
